Data as given in patent US11672786B2, “Methods of treating diseases associated with repeat instability” (The Hospital for Sick Children, priority 2016, dated 2023).
Values joined by “and” are separate entries in the source; they are usually repeats but may differ in a detail not shown here. Identical values can stand only once.

How the values were obtained:
[1] = tested on: long (CAG)20 slip-out; assay: in vitro repair assay by HeLa cell extracts, long (CAG)20 slip-out; format: biochemical, human
Description: Panel A of […] is a schematic of the in vitro repair assay. Starting DNAs and repair products released the repeat-containing fragment, which is resolved on PAGE and assessed on a molar level by Southern blotting and densitometry. Repair of different DNA substrates containing a long (CAG)20 slip-out (Panel B of FIG. 3) long (CTG)20 slip-out (Panel C of FIG. 3), a single CAG slip-out (Panel D of FIG. 3) or a single G-T mismatch (Panel E of FIG. 3), in the absence or in the presence of NA. Slipped-DNA substrates were prepared from hybrids of (CAG)50●(CTG)30, (CAG)30●(CTG)50 or of (CAG)50●(CTG)49. Repair of the G-T mismatch reconstitutes a HindIII restriction site, as shown schematically. Graphs show percentage repair efficiencies to repaired product relative to all repeat-containing fragments in the lane, values are normalized to the NA-free efficiency. […]
To determine how the binding of NA to slipped DNA structures affects repair, a series of circular slipped heteroduplex substrates was made with an excess of repeats with a nick located either 5′ or 3′ of the slip-out (FIG. 3). […] All these substrates were processed in […] by HeLa extracts and then were assessed for repair. Repair products were analyzed by Southern blotting, probed for the repeat-containing fragment, and compared with starting material, which permitted quantitative assessment of repair efficiency at a molar level. […]

[2] = tested on: HT1080-non transcribing (CAG)850 cells; assay: small-pool PCR repeat instability, HT1080-non transcribing (CAG)850 cells; format: cell-based, human; settings: 50 uM NA, 30 days, repeat not transcribed
Experimental: The construction of the HT1080-(CAG)850 cell model was described previously (Sathasivam et al., 1997, Hum. Genet., 99:692-5). Briefly, HT1080 (ATCC) human fibrosarcoma cells were co-transfected with a plasmid (LC15-R) containing 800-850 (CTG)●(CAG) repeats (Nakatani et al., 2005, Nat. Chem. Biol., 1:39-43) and a plasmid encoding PhiC31 integrase. Transfection was performed with a Nucleofector (Lonza, Basel, Switzerland), and stably transfected clones were selected with puromycin. […] The HT1080-non-transcribing (CAG)850 cell model was established by transfecting a plasmid modified from pLC16 by inserting an additional SV40 polyadenylation signal downstream of the repeats (in addition to the original polyadenylation signals located upstream of the repeats), so that CAG/CTG repeats are floxed by transcription-terminator elements. The AttB-PhiC31 system has been widely used for single copy integration. […] The HT1080 model cells and an HD primary fibroblast cell line, GM09197 (Coriell Biorepository) with a large expanded allele of 180 CAG repeats and a non-expanded allele of 23 repeats (Sathasivam et al., 1997, Hum. Genet., 99:[…]), the HD primary fibroblast cell line, GM02191 (Coreill Biorepository) with an expanded allele of 43 CAG repeats and a non-expanded allele of 19 repeats, were cultured at 37° C. with 5% CO2 in Dulbecco's modified Eagle's medium supplemented with 10% fetal bovine serum and 1% penicillin/streptomycin. Cells were treated with or without continuous exposure to 50-μM NA for 30 days (HT1080 cells) or for 40 days (fibroblast cells). For experiments on non-proliferating cells, HT1080 cells were grown to confluence and then treated for the same period. WST-1 assay was performed according to the manufacturer's instructions (Roche, Basel, Switzerland). All cell lines were tested to be free of Mycoplasma. Three biological replicates were performed for each experiment.
Genomic DNA was extracted from HT1080-(CAG)850 clones and HD primary fibroblasts using the Gentra Puregene Cell Kit (Qiagen, Valencia, Calif.). The expanded (CTG)●(CAG) repeats were sized by small-pool PCR (sp-PCR) followed by Southern blot as described previously (Sathasivam et al., 1997, Hum. Genet., 99:692-5). For HT1080 models, small-pool PCR (spPCR) was performed with the input of 1.4-1.7 genome equivalents. The repeat size difference in the models is, at most, 3000 base-pairs, therefore, being strictly conservative, a bias toward amplifying the shorter allele can be possible, even under optimized PCR conditions described herein. For HD primary fibroblasts, sp-PCR & Southern blots were performed as described previously with slight modifications (Tome et al., 2013, PLoS Genet., 9:e1003280). Briefly, the PCR primers listed in Table 1 were used, and blots were hybridized with a DIG-labeled (CAG)7 locked nucleic acid probe (Nakamori et al. 2009, Neuromuscul. Disord., 19:759-62). At least 50 alleles were analyzed for each of the three experiments (more than 150 alleles for a total study). Repeat analyses are summarized in Table 2, compiled from complete small-pool-PCR datasets for each repetition of each experiment. For the histograms in FIGS. 4D, 4E, 10, 11, 5B, 5D, 5E, 14 and 15B, the Y-axis, “% of repeat population” was calculated by determining the proportion of >50 individual small-pool PCR reactions across the CAG repeat tract, that harbored a certain size of repeat product with a certain length. Cell clones were grown 30 or 40 days with or without NA (see, for example, Sathasivam et al., 1997, Hum. Genet., 99:692-5). Specifically, the histograms of repeat length distributions were from at least two different cell clones. Length distributions were determined as follows: Small-pool PCR followed by Southern blot for analysis of CAG/CTG repeat length.

[3] = single experiments Ex 1-3, cut-off ±25 repeats

Question: Which “effect on repair of long (CAG)20 slip-outs” value [1] does the source give for naphthyridine-azaquinolone here?
Answer: specifically inhibits repair

Question: What about the “% Contraction” value ([2]; Total) of the same substance?
Answer: 21.8%

Question: What about the “% Expansion” value ([2]; Total) of the same substance?
Answer: 12.1%

Question: And the “% Unchanged” value ([2]; Total)?
Answer: 66.1%

Question: And the “Average Change of Repeat Size” value ([2]; Total)?
Answer: −55.9 number of repeats

Question: And the “% Unchanged” value ([2]; single experiments Ex 1-3)?
Answer: 66.7% and 62.5% and 69.1%

Question: What about the “% Contraction” value [2, 3] of the same substance?
Answer: 22.2% and 21.4% and 21.8%

Question: What about the “% Expansion” value [2, 3] of the same substance?
Answer: 11.1% and 16.1% and 9.1%
